Measurements: patent US20240101749A1, “RESIN COMPOSITION” (4D MEDICINE LIMITED, priority 2021, published 2024)

Columns and labels:
[1] = UV-vis absorption spectrum in acetone; format: physicochemical
Protocol: Referring now to FIG. 1B, there is shown a synthetic pathway to Reactive Diluent 1, 2, and 3. […] Reactive diluents of the invention are non-white coloured.
The spectra 2a and 2b of Reactive Diluent 3 were recorded in spectroscopy grade acetone, diluted from 1M stock solutions down to 10 μM using serial dilutions. Absorption behaviour was examined from 200 nm to 800 nm, at 1 nm increments, using a ThermoFisher 350 UV-vis spectrophotometer (ThermoFisher Scientific, UK). Absorption maxima at 365, 405, 455, and 500 nm were recorded for comparison.
(§1) Referring also to FIG. 3, there is shown a series of graphs illustrating the absorption behaviour of the resin components in spectroscopy grade acetone, diluted from 1 M stock solutions down to 10 μM using serial dilutions. Absorption behaviour was examined from 200 nm to 800 nm, at 1 nm increments, with absorption maxima quantified at 365, 405, 455, and 500 nm, as indicated in the box in each graph.

[2] = Concentration at which Reactive Diluent 3 acts as a photoinhibitor (absorption vs concentration, inflection point); format: physicochemical
Protocol: as §1
This was used to determine the concentration at which Reactive Diluent 3 would act as a photoinhibitor for wavelengths of interest. At 365 nm, the inflection point of the logarithmic plot of the linear fit was located at ca 0.015M; 405 nm inflection point was located at 0.0131M; 450 nm inflection point was found at 0.099M; 500 nm inflection point was located at 0.1312M.

Row | concentration needed in a resin composition to function as a photoinhibitor [2] | inflection point of the logarithmic plot of the linear fit ([2]; 365 nm, acetone) [M] | inflection point ([2]; 405 nm, acetone) [M] | inflection point ([2]; 450 nm, acetone) [M] | inflection point ([2]; 500 nm, acetone) [M] | Compound | absorption maximum (λmax) [1]
1 |  |  |  |  |  | C=CCOC(=O)NCC1(C)CC(NC(=O)OCC=C)CC(C)(C)C1 (centres unmarked) [Reactive Diluent 1] | do not exhibit an absorption maximum (λmax) of between 350 and 520 nm
2 | at least 0.015 M | ~0.015 | 0.0131 | 0.099 | 0.1312 | C=CCN1C(=O)CC(=O)N(CC2(C)CC(N3C(=O)CC(=O)N(CC=C)C3=O)CC(C)(C)C2)C1=O (centres unmarked) [Reactive Diluent 3] | ca. 450 nm
3 |  |  |  |  |  | C=CCNC(=O)NCC1(C)CC(NC(=O)NCC=C)CC(C)(C)C1 (centres unmarked) [Reactive Diluent 2] | do not exhibit an absorption maximum (λmax) of between 350 and 520 nm
